One assay relates to MCF7. Put plainly: CCK-8 proliferation, MCF7 (MCF-7). The following applies: Homo sapiens, MCF7. The format is cell-based. As to the method: (§1) The tumor cells used herein were cultured in a cell culture medium listed in table A1 at 37°C in an incubator with 5% CO2. Prior to experimentation, all cell lines used were correctly identified by STR profiling, and tested negative for mycoplasma contamination using a mycoplasma detection kit through routine screenings. Table A1. Tumor cells and cell culture medium used in the present disclosure
(§2) IC50 values of the compounds of the present disclosure (including the compounds in Table 1, and compounds of examples) were measured using the Meilun Cell Counting Kit-8 kit from Dalian Meilun Biotech Co., Ltd. Assay details are as follows: tumor cells were seeded in a 96-well plate at a density listed in Table A2. After 24h, 100 µL of the inoculated cells were treated with 0.5µL of the compounds of the present disclosure (including the compounds in Tables 1 and 2, and compounds of examples) at 10 different successively decreasing concentrations (starting at the highest concentration of 10µM; 5-fold serial dilutions). After the cells were treated with the compounds of the present disclosure for a period of time, the cell viability detection reagent was added to the culture medium for cell viability assessment according to the instructions provided with the CCK-8 kit. […] The growth inhibition of the compounds of the present disclosure on cells was plotted by Prism Graphpad software, and the IC50 values of the compounds of the present disclosure were calculated therefrom. […] Seeding protocol and treatment time for tumor cells

A further assay deals with H2228. As to the kind of experiment: CCK-8 proliferation, NCI-H2228 (H2228). The format is cell-based. As to conditions: Homo sapiens, NCI-H2228; Table B6, compounds designed based on the ALK inhibitors; H2228 cells; read-out: Inhibitory activity (IC50, nM) on tumor cell proliferation, H2228. As to the method: as §1, §2
The next assay concerns SR. As to the kind of experiment: CCK-8 proliferation, SR. The format is cell-based, Human. As to conditions: Homo sapiens; Table B6, compounds designed based on the ALK inhibitors; SR cells; read-out: Inhibitory activity (IC50, nM) on tumor cell proliferation, SR. How it is done: as §1, §2
The next assay has as its system H1975. As to the kind of experiment: CCK-8 proliferation, NCI-H1975 (H1975). The format is cell-based, Human. The following applies: Homo sapiens, NCI-H1975. Summed up:
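Cells seeded, then after 24 h treated with 10 concentrations (top 10 µM, 5-fold serial dilution) for a line-specific time at 37°C, 5% CO2. Viability read by CCK-8; IC50 fitted from growth-inhibition curves.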

Where [1] appears, read: Table B6, compounds designed based on the ALK inhibitors, MCF-7 cells, read-out: Inhibitory activity (IC50, nM) on tumor cell proliferation, MCF-7.
The mark [2] stands for this setting: Table B6, compounds designed based on the ALK inhibitors, H1975 cells, read-out: Inhibitory activity (IC50, nM) on tumor cell proliferation, H1975.
[3] abbreviates: CCK-8, 96 hours, read-out: Inhibitory activity (IC50) on tumor cell proliferation, H1975.

Where two headings read alike, the source gives them in different places.

Turning to `CC(=O)c1c(C)c2cnc(Nc3ccc(N4CCN(Cc5cccc(N6CCC(=O)NC6=O)c5)CC4)cn3)nc2n(C2CCCC2)c1=O` [GT-06577, 1-(3-((4-(6-((6-acetyl-8-cyclopentyl-5-methyl-7-oxo-7,8-dihydropyrido[2,3-d]pyrimidin-2-yl)amino)pyridin-3-yl)piperazin-1-yl)methyl)phenyl)dihydropyr imidine-2,4(1H,3H)-dione], the IC50 with MCF7 (CCK-8, read-out: Inhibitory activity (IC50) on tumor cell proliferation, MCF7) is 100 to 500 nM.
Turning to `CCc1cc2c(cc1N1CCC(N3CCN(Cc4ccc(N5CCC(=O)NC5=O)cc4)CC3)CC1)C(C)(C)c1[nH]c3cc(C#N)ccc3c1C2=O` [GT-07307, 8-(4-(4-(4-(2,4-dioxotetrahydropyrimidin-1(2H)-yl)benzyl)piperazin-1-yl)piperidin-1-yl)-9-ethyl-6,6-dimethyl-11-oxo-6,11-dihydro-5H-benzo[b]carbazole-3-carbonitrile], the IC50 with H2228 lay in the range of 100 to 500 nM; in the assay with MCF7 (setting [1]), 100 to 500 nM; in the assay with SR, 10 to 50 nM.
Take `CCc1cc2c(cc1N1CCC(N3CCN(Cc4cccc(NC5CCC(=O)NC5=O)c4)CC3)CC1)C(C)(C)c1[nH]c3cc(C#N)ccc3c1C2=O` (stereo not shown) [GT-07313, 8-(4-(4-(3-((2,6-dioxopiperidin-3-yl)amino)benzyl)piperazin-1-yl)piperidin-1-yl)-9-ethyl-6,6-dimethyl-11-oxo-6,11-dihydro-5H-benzo[b]carbazole-3-carbonitrile]: the IC50 fell in the range of 100 to 500 nM in the assay with H2228 and 1 to 10 nM in the assay on SR.
For the compound `COc1cc(N2CCN(Cc3ccc(N4CCC(=O)NC4=O)nc3)CC2)ccc1Nc1ncc(Cl)c(Nc2ccccc2P(C)(C)=O)n1` [GT-07350, 1-(5-((4-(4-((5-chloro-4-((2-(dimethylphosphoryl)phenyl)amino)pyrimidin-2-yl)amino)-3-methoxyphenyl)piperazin-1-yl)methyl)pyridin-2-yl)dihydropyrimidine-2,4(1H,3H)-dione], the IC50 with H2228 was 100 to 500 nM; with H1975 (setting [2]), 500 to 1000 nM; with SR it was 50 to 100 nM.
As to `Cc1cc(Nc2ncc(Cl)c(Nc3ccccc3S(=O)(=O)C(C)C)n2)c(OC(C)C)cc1C1CCN(Cc2ccc(C3CCC(=O)NC3=O)c(F)c2)CC1` (stereo not shown) [GT-07365, 3-(4-((4-(4-((5-chloro-4-((2-(isopropylsulfonyl)phenyl)amino)pyrimidin-2-yl)amino)-5-isopropoxy-2-methylphenyl)piperidin-1-yl)methyl)-2-fluorophenyl)piperidine-2,6-dione], the IC50 in the assay on H2228 and in the assay on SR was 100 to 500 nM in each case.
For `O=C1CCC(c2cnc(F)c(CN3CCN(c4ccc(-c5cc(F)c6c(c5)C(=O)N(C(C(=O)Nc5nccs5)c5ncn7c5CCC7)C6)cc4)CC3)c2)C(=O)N1` (stereo not shown) [GT-07490, 2-(6,7-dihydro-5H-pyrrolo[1,2-c]imidazol-1-yl)-2-(6-(4-(4-((5-(2,6-dioxopiperidin-3-yl)-2-fluoropyridin-3-yl)methyl)piperazin-1-yl)phenyl)-4-fluoro-1-oxoisoindolin-2-yl)-N-(thiazol-2-yl)acetamide], the IC50 in the assay on H1975 (setting [3]) was 1 to 10 nM.
Still for that read-out and setting: for `CN(Cc1cc(C2CCC(=O)NC2=O)cnc1F)C1CCN(c2ccc(-c3cc(F)c4c(c3)C(=O)N(C(C(=O)Nc3nccs3)c3ncn5c3CCC5)C4)cc2)CC1` (stereo not shown) [GT-07560, 2-(6,7-dihydro-5H-pyrrolo[1,2-c]imidazol-1-yl)-2-(6-(4-(4-(((5-(2,6-dioxopiperidin-3-yl)-2-fluoropyridin-3-yl)methyl)(methyl)amino)piperidin-1-yl)phenyl)-4-fluoro-1-oxoisoindolin-2-yl)-N-(thiazol-2-yl)acetamide] the value was 1 to 10 nM; for `CN(Cc1cccnc1NC1CCC(=O)NC1=O)C1CCN(c2ccc(-c3cc(F)c4c(c3)C(=O)N(C(C(=O)Nc3nccs3)c3ncn5c3CCC5)C4)cc2)CC1` (stereo not shown) [GT-07561, 2-(6,7-dihydro-5H-pyrrolo[1,2-c]imidazol-1-yl)-2-(6-(4-(4-(((2-((2,6-dioxopiperidin-3-yl)amino)pyridin-3-yl)methyl)(methyl)amino)piperidin-1-yl)phenyl)-4-fluoro-1-oxoisoindolin-2-yl)-N-(thiazol-2-yl)acetamide], 1 to 10 nM; for `O=C1CCC(c2cnc(F)c(CN3C[C@H]4C[C@@H]3CN4c3ccc(-c4cc(F)c5c(c4)C(=O)N(C(C(=O)Nc4nccs4)c4ncn6c4CCC6)C5)cc3)c2)C(=O)N1` (stereo partly drawn) [GT-07562, 2-(6,7-dihydro-5H-pyrrolo[1,2-c]imidazol-1-yl)-2-(6-(4-((1R,4R)-5-((5-(2,6-dioxopiperidin-3-yl)-2-fluoropyridin-3-yl)methyl)-2,5-diazabicyclo[2.2.1]heptan-2-yl)phenyl)-4-fluoro-1-oxoisoindolin-2-yl)-N-(thiazol-2-yl)acetamide], 10 to 50 nM.
Regarding `Cc1cc(Nc2ncc(Cl)c(Nc3ccccc3S(=O)(=O)C(C)C)n2)c(OC(C)C)cc1C1CCN(Cc2cc(C3CCC(=O)NC3=O)cnc2F)CC1` (stereo not shown) [GT-07598, 3-(5-((4-(4-((5-chloro-4-((2-(isopropylsulfonyl)phenyl)amino)pyrimidin-2-yl)amino)-5-isopropoxy-2-methylphenyl)piperidin-1-yl)methyl)-6-fluoropyridin-3-yl)piperidine-2,6-dione], the IC50 in the assay on H2228 and with SR was 100 to 500 nM each time.
In the case of `CCc1cc2c(cc1N1CCC(N3CCN(Cc4cc(N5CCC(=O)NC5=O)ncc4F)CC3)CC1)C(C)(C)c1[nH]c3cc(C#N)ccc3c1C2=O` [GT-07700, 8-(4-(4-((2-(2,4-dioxotetrahydropyrimidin-1(2H)-yl)-5-fluoropyridin-4-yl)methyl)piperazin-1-yl)piperidin-1-yl)-9-ethyl-6,6-dimethyl-11-oxo-6,11-dihydro-5H-benzo[b]carbazole-3-carbonitrile], the IC50 was 50 to 100 nM in the assay with H2228, 500 to 1000 nM in the assay on MCF7 (setting [1]) and 1 to 10 nM in the assay on SR.
For `CCc1cc2c(cc1N1CCC(N3CCN(Cc4ccnc(C5CCC(=O)NC5=O)c4)CC3)CC1)C(C)(C)c1[nH]c3cc(C#N)ccc3c1C2=O` (stereo not shown) [GT-07704, 8-(4-(4-((2-(2,6-dioxopiperidin-3-yl)pyridin-4-yl)methyl)piperazin-1-yl)piperidin-1-yl)-9-ethyl-6,6-dimethyl-11-oxo-6,11-dihydro-5H-benzo[b]carbazole-3-carbonitrile], the figures for the IC50 in the assay with H2228, in the assay on H1975 (setting [2]) and in the assay with SR were 50 to 100 nM, 500 to 1000 nM and 1 to 10 nM, respectively.
As to `COc1cc(N2CCN(Cc3cncc(N4CCC(=O)NC4=O)c3)CC2)ccc1Nc1ncc(Cl)c(Nc2ccccc2P(C)(C)=O)n1` [GT-07709, 1-(5-((4-(4-((5-chloro-4-((2-(dimethylphosphoryl)phenyl)amino)pyrimidin-2-yl)amino)-3-methoxyphenyl)piperazin-1-yl)methyl)pyridin-3-yl)dihydropyrimidine-2,4(1H,3H)-dione], the figures for the IC50 in the assay on H2228 and with SR were 500 to 1000 nM and 50 to 100 nM, respectively.
Turning to `COc1cc(N2CCN(Cc3ccnc(C4CCC(=O)NC4=O)c3)CC2)ccc1Nc1ncc(Cl)c(Nc2ccccc2P(C)(C)=O)n1` (stereo not shown) [GT-07712, 3-(4-((4-(4-((5-chloro-4-((2-(dimethylphosphoryl)phenyl)amino)pyrimidin-2-yl)amino)-3-methoxyphenyl)piperazin-1-yl)methyl)pyridin-2-yl)piperidine-2,6-dione], the IC50 in the assay with H2228 fell in the range of 100 to 500 nM; with H1975 (setting [2]), 500 to 1000 nM; in the assay with SR, 10 to 50 nM.

(Values after EP4678638A1, “NEW E3 UBIQUITIN LIGASE LIGAND, PROTEIN DEGRADATION AGENT AND USE THEREOF” (priority 2023, dated 2024).)
